Source: ChEMBL document CHEMBL3137440, “DNDi T. cruzi fenarimol series dataset from which preclinical candidate EPL-BS0967 was identified (see also related datasets: CHEMBL3137386 and CHEMBL2448688)”
In brackets after ≈: the same amount, converted by molar mass. Several values for one entry are separate records, joined by “and”; a condition that tells them apart may be missing. Identical values can stand only once.

Columns and labels:
[1] = test system: Trypanosoma cruzi; assay: (§1) DNDI: Chagas in Vitro; format: functional, organism-based, Tulahuen C4 (LacZ)
[2] = DNDI: Solubility in phosphate buffer at pH 6.5 determined by nephelometry
[3] = DNDI: Lipophilicity (gLogD) at pH 3; details: buffer
[4] = DNDI: Solubility in 0.01M HCl at pH 2 determined by nephelometry
[5] = in vitro; details: human, microsomes
[6] = DNDI: Lipophilicity (gLogD) at pH 7.4; details: buffer
[7] = biological target: T1, Cytochrome P450 3A4 (Homo sapiens, UniProt P08684)
[8] = in vitro; details: human, microsomes; remark: listed apart in the source
[9] = test system: Trypanosoma cruzi; assay: as §1; format: functional, Tulahuen C4 (LacZ)
[10] = DNDI: Cytotoxicity against L-6 rat myoblasts from skeletal musclE; details: L6 rat skeletal muscle myoblasts, IC50
[11] = in vitro; details: human, microsomes; remark: listed apart in the source
[12] = DNDI: Metabolism; format: ADME, Microsome; details: rat, microsomes; for hepatic extraction ratio: read-out: EH
[13] = biological target: T1, Cytochrome P450 3A4; remark: listed apart in the source
[14] = test system: Leishmania donovani; assay: DNDI: Inhibition of formation of Leishmania donovani; format: functional, MHOM/ET/67/L82; parameters: concentration or dose not given beside the values
[15] = Trypanosoma cruzi, Tulahuen C4 (LacZ)

T1 sequence (P08684 whole entry): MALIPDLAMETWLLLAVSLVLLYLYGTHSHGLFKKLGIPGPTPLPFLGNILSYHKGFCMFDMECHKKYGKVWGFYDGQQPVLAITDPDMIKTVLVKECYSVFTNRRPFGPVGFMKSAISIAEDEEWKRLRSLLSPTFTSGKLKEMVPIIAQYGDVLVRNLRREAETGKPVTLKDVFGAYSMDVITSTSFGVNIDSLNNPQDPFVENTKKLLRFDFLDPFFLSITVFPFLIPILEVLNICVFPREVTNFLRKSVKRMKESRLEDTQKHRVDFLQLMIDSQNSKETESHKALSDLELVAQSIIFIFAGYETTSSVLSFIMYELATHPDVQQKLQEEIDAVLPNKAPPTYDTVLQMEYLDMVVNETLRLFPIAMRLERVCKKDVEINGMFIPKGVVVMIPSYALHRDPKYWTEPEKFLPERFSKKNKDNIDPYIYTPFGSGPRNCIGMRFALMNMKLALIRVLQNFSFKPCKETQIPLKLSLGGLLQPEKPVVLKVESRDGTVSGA

| SMILES | IC50 [1, 15] [nM] | solubility kinetic [2] [µg/mL] | solubility kinetic [4] [µg/mL] | IC50 [7] [nM] | IC90 [9, 15] [nM] | IC50 [10] [nM] | chromatographic logD ([3]; pH 3) | half-life [5] [min] | chromatographic logD ([6]; pH 7.4) | microsomal CLint [8] [µL/min/mg] | hepatic extraction ratio [11] | further results |
| --- | --- | --- | --- | --- | --- | --- | --- | --- | --- | --- | --- | --- |
| CC(=O)C(C)N1CCC(N(c2ccc(C(F)(F)F)cc2)c2cccnc2)CC1 (stereo not drawn) | 15 | 6.3 (≈ 16.1 µM) | > 100 | 5000 | 31 | 69000 | – | – | – | – | – | chromatographic logD ([3]; pH 3, logD): 1.3; half-life ([5]; t (1 / 2)): 21.5 min; chromatographic logD ([6]; pH 7.4, logD): 4.2; microsomal CLint ([8]; CLint): 80.7 µL/min/mg; hepatic extraction ratio ([11]; EH): 0.82 |
| Cc1ncsc1C(=O)N1CCC(N(c2ccc(C(F)(F)F)cc2)c2cccnc2)CC1 | 6.93 | 12.5 (≈ 28 µM) | > 100 | – | 11 | 67400 | 2.1 | 16.6 | 3.3 | 105 | 0.85 | half-life [12]: 28.1 min; microsomal CLint [12]: 61.8 µL/min/mg; hepatic extraction ratio [12]: 0.67; IC50 [13]: 2900 nM |
| N#Cc1cc(C(F)(F)F)ccc1N1CCC(N(c2ccc(C(F)(F)F)cc2)c2cccnc2)CC1 | 7 | < 1.6 | 12.5 (≈ 25.5 µM) | > 20000 | 11 | 24300 | 5.2 | 32.8 | > 5.3 | 52.9 | 0.75 | – |
| N#Cc1cc(C(F)(F)F)ccc1N1CCC(N(c2ccc(Cl)cc2)c2cccnc2)CC1 | 5 | < 1.6 | 25 (≈ 54.7 µM) | > 20000 | 10.5 | 17700 | 4.7 | 16.8 | > 5.3 | 103 | 0.85 | – |
| CN(C)S(=O)(=O)c1cccc(N2CCC(N(c3ccc(C(F)(F)F)cc3)c3cccnc3)CC2)c1 | 15 | < 1.6 | 25 (≈ 49.5 µM) | 7000 | 31 | 10400 | 4.4 | 6.7 | 4.7 | 258 | 0.94 | – |
| FC(F)(F)c1ccc(N2CCC(N(c3ccc(C(F)(F)F)cc3)c3cccnc3)CC2)cc1 | 15 | – | – | – | 38 | – | – | – | – | – | – | IC50 [1]: 23 nM and 16.5 nM; % inhibition [14]: 38.5%; IC90 [9]: 28 nM and 41 nM |
| Cn1nc(C2CC2)cc1N1CCC(N(c2ccc(C(F)(F)F)cc2)c2cccnc2)CC1 | 7 | < 1.6 | 50 (≈ 113 µM) | > 20000 | 13.5 | 30000 | 4.6 | 14.6 | 4.8 | 118 | 0.87 | – |
| N#Cc1ccc(N(c2cccnc2)C2CCN(c3ccc(C(F)(F)F)cc3)CC2)cc1 | 3 | < 1.6 | – | – | 9 | > 100000 | 4.6 | 43.9 | – | 39.5 | – | % inhibition [14]: 28.1%; IC90 [9]: 10 nM |
| CCC(C(C)O)N1CCC(N(c2ccc(C(F)(F)F)cc2)c2cccnc2)CC1 (stereo not drawn) | 61 | 25 (≈ 61.4 µM) | > 100 | 17000 | > 100 | 49600 | – | – | – | – | – | chromatographic logD ([3]; pH 3, logD): 1.6; half-life ([5]; t (1 / 2)): 35.8 min; chromatographic logD ([6]; pH 7.4, logD): 4.3; microsomal CLint ([8]; CLint): 48.4 µL/min/mg; hepatic extraction ratio ([11]; EH): 0.73 |
| N#Cc1ccccc1N1CCC(N(c2ccc(C(F)(F)F)cc2)c2cccnc2)CC1 | 3 | < 1.6 | > 100 | – | 8 | – | 4.4 | 12.8 | – | 136 | 0.88 | % inhibition [14]: 60.9% |
| N#Cc1ccc(N2CCC(N(c3ccc(C(F)(F)F)cc3)c3cccnc3)CC2)cc1 | 7 | < 1.6 | 50 (≈ 118 µM) | – | 13 | > 100000 | 4.3 | 15.5 | 4.7 | 112 | – | % inhibition [14]: 51.5% |
| CC(C)C(O)CN1CCC(N(c2ccc(C(F)(F)F)cc2)c2cccnc2)CC1 (stereo not drawn) | 36 | 25 (≈ 61.4 µM) | > 100 | > 20000 | > 10000 | 51500 | – | – | – | – | – | chromatographic logD ([3]; pH 3, logD): 1.6; half-life ([5]; t (1 / 2)): 29.8 min; chromatographic logD ([6]; pH 7.4, logD): 3.9; microsomal CLint ([8]; CLint): 58.2 µL/min/mg; hepatic extraction ratio ([11]; EH): 0.76 |
| CCC(C(C)=O)N1CCC(N(c2ccc(C(F)(F)F)cc2)c2cccnc2)CC1 (stereo not drawn) | 8 | 12.5 (≈ 30.8 µM) | > 100 | 10000 | 20 | 25000 | – | – | – | – | – | chromatographic logD ([3]; pH 3, logD): 1.6; half-life ([5]; t (1 / 2)): 11.1 min; chromatographic logD ([6]; pH 7.4, logD): 4.6; microsomal CLint ([8]; CLint): 156 µL/min/mg; hepatic extraction ratio ([11]; EH): 0.9 |
| CC(C)(C)C(=O)N1CCC(N(c2ccc(C(F)(F)F)cc2)c2cccnc2)CC1 | 2.66 | 6.3 (≈ 15.5 µM) | > 100 | – | 7.59 | – | 3.1 | 13.8 | 4.2 | 126 | 0.88 | half-life [12]: 13.2 min; microsomal CLint [12]: 131 µL/min/mg; hepatic extraction ratio [12]: 0.81; IC50 [13]: 1900 nM |
| N#Cc1ccc(N(c2cccnc2)C2CCN(c3ccc(F)c(F)c3)CC2)cc1 | 1.8 | < 1.6 | 6.3 (≈ 16.1 µM) | 4300 | 3 | > 100000 | 4.2 | 23.5 | 4.4 | 73.7 | 0.8 | – |
| O=C(c1ccccc1C(F)(F)F)N1CCC(N(c2ccc(C(F)(F)F)cc2)c2cccnc2)CC1 | 0.618 | 1.6 (≈ 3.24 µM) | > 100 | – | 1.47 | – | 3.5 | 7 | 4.4 | 247 | 0.93 | % inhibition [14]: 66.3%; half-life [12]: 24 min; microsomal CLint [12]: 72.1 µL/min/mg; hepatic extraction ratio [12]: 0.7; IC50 [13]: 1700 nM |
| CS(=O)(=O)c1ccc(N2CCC(N(c3ccc(Cl)cc3)c3cccnc3)CC2)cc1 | 2.18 | < 1.6 | > 100 | 2000 | 5.7 | – | 2.3 | 13.1 | 3.9 | 132 | 0.88 | – |
